Measurements from US12458622B2, “Methods of treatment of coronavirus-induced inflammation conditions” (priority 2020, dated 2025).
Where two headings read alike, the source gives them in different places.

Tests used:
[1] = test system: BV2 cells stably expressing CD33 (BV2-CD33WT); assay: Aβ42 uptake, ELISA; format: cell-based; details: 16 hours pretreatment then 2 hours with Aβ42, vs DMSO
[2] = test system: HMC3 human microglia cells; assay: MSD U-PLEX chemokine secretion induced by TNF-α; format: cell-based; details: 0.3 μg/mL TNF-α, 24 hours; for inhibition at 3 µM: Homo sapiens, HMC3
Procedure: Human microglial cell line HMC3 (CRL-3304) was purchased from ATCC (American Type Culture Collection). HMC3 cell line was cultured in DMEM medium with 10% FBS, 1% L-glutamine, and 1% penicillin/streptomycin. Cells were maintained in 37° C. incubator at 5% CO2.
HMC3 cells were resuspended, counted using the LUNA-II Automated Cell Counter, seeded in the 6-well plate (400 K cells/2 mL medium/well), and incubated overnight to allow cells to attach. The media and detached cells were removed next day. The cell layer was washed three times in PBS and once in serum- and phenolred-free DMEM (SPFM). […] The conditioned medium was collected and centrifuged at 1,000×RCF (g) for 5 min to pellet detached cells and large debris, which was subsequently passed through a 0.22 μm filter with PVDF membrane to remove smaller debris. Samples of the supernatant medium were put in a CoolRack (#07210041, Fisher Scientific) on dry ice for Snap-freezing and kept at −80° C. until use.
Meso-scale U-PLEX plates that detect a cytokine panel including IL-1β, IL-2, IL-4, IL-6, IL-8, IL-10, IFN-γ, TNF-α, and a chemokine panel including IP-10/CXCL10, MCP-1/CCL2, MIP-1α/CCL3, MIP-1P/CCL4, Eotaxin/CCL11, were used as per manufacture's protocol. 25 μL of the conditioned medium was used in each well of the MSD plates to detect the analytes. The plates were then analyzed on an MSD QuickPlex SQ120 instrument.
All the data were presented as mean±standard error from at least three times, each done in triplicate. The statistical significance between two groups was determined by Student's t test, whereas the comparisons of multiple groups were carried out by one-way ANOVA, followed by Bonferroni's post-test using GraphPad Prism 7 (GraphPad Software, Inc.). A probability value of * p<0.05 was considered to be significant.

[3] = pH of solution in saline; format: physicochemical; details: 25 mg in 25 ml of saline
Procedure: In some embodiments, the compounds of the invention are provided as part of a kit for infusion. The kit contains from about 25 mg to about 250 mg of the compound of Formula I or II in a volume of buffer or saline from about 25 ml to about 250 ml. The pH of saline or buffer pH ranges from about 5.8 to about 6.8. […] Alternatively, the buffer can be Ringer's lactate (pH 6.5). Alternatively yet, the buffer can be citrate buffer (pH 6.0).

[4] = test system: Dog; details: cited from earlier work
[5] = test system: Stump-tailed Monkeys; details: cited from earlier work
[6] = test system: Wistar Rats; details: 4% cromolyn 0, 4, 8, 16 mg/day, 3 month; cited from earlier work
[7] = test system: Rhesus Monkeys; details: daily IV dosing at 0, 2, 10 and 50 mg/kg, 6 months; cited from earlier work
[8] = cited from earlier work

With `O=C(O)c1cc(=O)c2c(OCC(O)COc3cccc4oc(C(=O)O)cc(=O)c34)cccc2o1` [cromolyn] the “Internalized Aβ42” value [1] was “increased levels of internalized Aβ42”, the “extracellular IP-10 (CXCL10)” value ([2]; 0.3 μM) was “statistically significant reduction” and the “extracellular MCP-1 (CCL2)” value ([2]; 0.3 μM) was “statistically significant reduction”. For the same compound, the “extracellular MIP-1α (CCL3)” value ([2]; 0.3 μM) was “statistically significant reduction”, the “extracellular MIP-1β (CCL4)” value ([2]; 0.3 μM) was “statistically significant reduction” and the inhibition at 3 µM ([2]; read-out: inhibition of IP-10 (CXCL10)) was greater than 40%. It also gave an inhibition at 3 µM ([2]; read-out: inhibition of MCP-1 (CCL2)) greater than 40%, an inhibition at 3 µM ([2]; read-out: inhibition of MIP-1α (CCL3)) of 35.6% and an inhibition at 3 µM ([2]; read-out: inhibition of MIP-1β (CCL4)) greater than 40%. For the same compound, the pH [3] was 6.8, the “LD50 Value” ([4]; IV) was greater than 1600 mg/kg and the “LD50 Value” ([4]; Oral) was greater than 4 gm/kg. The “Survival until the scheduled necropsy” value ([5]; single IV dose 333 mg/kg, 4 to 10-day observation) was “given 333 mg/kg survived”, the Clinical signs ([5]; single IV dose 5082 mg/kg) was “stertorous breathing,” and the “Time to death of one monkey” value ([5]; single IV dose 5082 mg/kg) was “mg/kg died within 4 hours”. For the same compound, the General toxicity [6] was “No general toxic effects”, the “Body weight, observations, clinical laboratory results, organ weights, gross and microscopic pathology” value [7] was “within normal limits and” and the “Adverse effects in repeat dose studies” value ([8]; all routes of administration) was “No adverse effects”. The Renal toxicity ([8]; dosing of high concentration, precipitation in the renal tubules) was “renal damage was observed”.
